Here are results for 16 compounds from ChEMBL document CHEMBL1156733, “Structure-activity relationship studies on a series of piperazinebenzylalcohols and their ketone and amine analogs as melanocortin-4 receptor ligands” (Bioorg Med Chem Lett, 2008).

For data set [1], the target named is Melanocortin receptor 4 (Homo sapiens, UniProt P32245, D122A). The data set is described as follows: Binding affinity to human MC4 receptor Asp122Ala mutant.
The species entered for the next data set is Homo sapiens. The data set is described as follows: Selectivity for human MC4 receptor over human MC4 receptor Asp122Ala mutant.
The target of data set [2] is T1, Melanocortin receptor 4 (Homo sapiens, UniProt P32245). The data set is described as follows: Antagonist activity at human MC4 receptor expressed in cells assessed as inhibition of alpha-MSH-stimulated cAMP production. It is filed as functional, cell-based. (In general: Changes in cAMP serve as a functional read-out for many G protein-coupled receptors.)
The target of the next data set is Melanocortin receptor 3 (Homo sapiens, UniProt P41968). The data set is described as follows: Binding affinity to MC3 receptor.
In data set [3] the target is T1, Melanocortin receptor 4.
In another data set the target is Melanocortin receptor 5 (Homo sapiens, UniProt P33032). The data set is described as follows: Binding affinity to MC5 receptor.
Data set [4] relates to Melanocortin receptor 1 (Homo sapiens). The data set is described as follows: Inhibition of human MC1 receptor at 10 uM.
Data set [5] can be described thus: Oral bioavailability in rat at 10 mg/kg. The data set is classed as ADME, organism-based. The note with it: in vivo.
Data set [6] can be described thus: Volume of distribution in rat at 5 mg/kg, iv. The data set is classed as ADME, organism-based. Set-up: dose 5 mg/kg, route intravenous. The note with it: in vivo.
Data set [7] in a line: AUC in rat at 10 mg/kg, po. It is filed as ADME, organism-based. The conditions noted are these: plasma. Set-up: dose 10 mg/kg, route oral.
Data set [8] can be described thus: Half life in rat at 5 mg/kg, iv. The arrangement: dose 5 mg/kg, route intravenous. The conditions noted are these: in vivo. The data set is classed as ADME, organism-based.
A short description of data set [9]: Ratio of drug level in brain to plasma in rat at 5 mg/kg, iv after 1 hr. It is filed as ADME, organism-based. Set-up: dose 5 mg/kg, route intravenous.
Data set [10] can be described thus: Plasma clearance in rat at 5 mg/kg, iv. The data set is classed as ADME, organism-based. Set-up: dose 5 mg/kg, route intravenous.
Data set [11] can be described thus: Metabolic stability assessed as intrinsic clearance in human liver microsomes. It is filed as ADME, Microsome. For orientation: Liver microsomes are vesicles of endoplasmic reticulum, rich in cytochrome P450 enzymes.
Another data set relates to Brain. The data set is described as follows: Drug level in rat brain rat at 5 mg/kg, iv. It is filed as ADME, organism-based. Set-up: dose 5 mg/kg, route intravenous. The note with it: in vivo.
Data set [12] can be described thus: Lipophilicity, log D of the compound. It is filed as physicochemical. The note with it: octanol/water.

Sequence of Melanocortin receptor 5 (P33032 whole entry): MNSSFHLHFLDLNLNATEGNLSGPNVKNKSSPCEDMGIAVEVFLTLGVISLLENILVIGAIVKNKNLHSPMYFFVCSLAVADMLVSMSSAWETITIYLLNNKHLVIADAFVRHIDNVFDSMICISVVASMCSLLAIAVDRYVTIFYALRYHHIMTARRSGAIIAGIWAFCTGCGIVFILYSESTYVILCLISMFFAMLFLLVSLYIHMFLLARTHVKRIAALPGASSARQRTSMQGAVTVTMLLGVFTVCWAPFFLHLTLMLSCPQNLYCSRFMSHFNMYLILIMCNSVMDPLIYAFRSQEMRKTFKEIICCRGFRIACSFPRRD
Sequence of Melanocortin receptor 3 (P41968 whole entry): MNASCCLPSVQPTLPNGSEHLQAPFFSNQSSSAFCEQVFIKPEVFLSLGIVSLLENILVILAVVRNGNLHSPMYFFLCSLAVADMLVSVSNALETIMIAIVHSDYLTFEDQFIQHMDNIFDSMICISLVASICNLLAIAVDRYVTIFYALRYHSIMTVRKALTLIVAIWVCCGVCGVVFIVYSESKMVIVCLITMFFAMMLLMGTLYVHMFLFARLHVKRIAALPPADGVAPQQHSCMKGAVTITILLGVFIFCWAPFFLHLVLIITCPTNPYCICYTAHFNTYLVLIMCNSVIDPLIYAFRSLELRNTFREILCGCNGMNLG
T1 sequence (P32245 whole entry): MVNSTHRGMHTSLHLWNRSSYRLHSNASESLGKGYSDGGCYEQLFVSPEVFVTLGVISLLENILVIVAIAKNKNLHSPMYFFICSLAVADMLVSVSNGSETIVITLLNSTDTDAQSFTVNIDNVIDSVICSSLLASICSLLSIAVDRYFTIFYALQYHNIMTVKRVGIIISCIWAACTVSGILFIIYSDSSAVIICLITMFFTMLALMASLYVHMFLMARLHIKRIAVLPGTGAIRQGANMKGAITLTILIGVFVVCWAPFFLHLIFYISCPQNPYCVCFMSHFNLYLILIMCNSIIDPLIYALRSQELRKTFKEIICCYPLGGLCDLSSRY
Sequence of Melanocortin receptor 4 (Homo sapiens, UniProt P32245, D122A) (P32245 whole entry D122A): as the sequence (P32245 whole entry) above, with D122A counted along it

One may read the Ki as the dissociation constant of the complex between target and ligand, obtained from inhibition or displacement. In general, IC50 refers to the midpoint of a concentration-inhibition curve. The term inhibition denotes the relative decrease from the control value, in per cent. For `CNCC(=O)N[C@H](Cc1ccc(Cl)cc1Cl)C(=O)N1CCN(c2ccccc2C(O)CC(C)C)CC1` (stereo partly drawn), the Ki at Melanocortin receptor 4 [1] came out at 500 nM; at Melanocortin receptor 3 it was 2500 nM; on Melanocortin receptor 4 [3], 8.3 nM; at Melanocortin receptor 5, 1800 nM. The fold change (FC) in the data set listed under Homo sapiens worked out at 60. The IC50 at Melanocortin receptor 4 [2] was 420 nM. Also, the inhibition in [4] stood at 34%.

Take `CNCC(=O)N[C@H](Cc1ccc(Cl)cc1Cl)C(=O)N1CCN(c2ccccc2C(N)CC(C)C)CC1` (stereo partly drawn): the inhibition constant Ki on Melanocortin receptor 4 [1] is 99 nM; on Melanocortin receptor 4 [3], 1.7 nM. The fold change (FC) in the data set filed under Homo sapiens turned out to be 58.

Usually bioavailability stands for dose-corrected exposure relative to a reference, in per cent. Lower therefore signals little systemic uptake. What is called Vd is a proportionality between amount in the body and measured concentration, not a real space. A higher Vd goes with wide distribution into tissue. What is called AUC is the area under the concentration-time curve, a measure of exposure. Usually half-life stands for the time in which the quantity being followed falls by half. Lower therefore signals fast loss. Broadly, the Kp is tissue or fluid exposure divided by exposure in the circulation. The clearance is the rate of elimination divided by the concentration. Lower therefore signals a low capacity for elimination. As a reminder, the CLint scaled is the rate of metabolic loss divided by the concentration. By logD is commonly meant lipophilicity at a set pH, counting ionised and neutral species. On to `CC(C)CC(O)c1ccccc1N1CCN(C(=O)[C@@H](Cc2ccc(Cl)cc2Cl)NC(=O)CCN)CC1` (stereo partly drawn), for which the bioavailability in [5] is 1.2%. In [6], this compound registered a distribution volume (Vd) of 42.3 L/kg. Further, the half-maximal inhibitory concentration (IC50) on Melanocortin receptor 4 [2] was 260 nM. Besides, the AUC in data set [7] was 30 ng·h/mL. In addition, in data set [8], the half-life was 7.6 h. For the same compound, the inhibition constant (Ki) at Melanocortin receptor 3 came to 1700 nM; on Melanocortin receptor 4 [3], 8.1 nM; on Melanocortin receptor 5 it was 970 nM. The Kp at 1 h in data set [9] came to 0.53. The clearance in [10] amounted to 64.5 mL/min/kg. The CLint scaled in data set [11] was 14.7 mL/min/kg. The compound also showed a Drug uptake with Brain of 117 ng/g. The log distribution coefficient (logD) in [12] is 2.2.

Turning to `CCC(O)(CC)c1ccccc1N1CCN(C(=O)[C@@H](Cc2ccc(Cl)cc2Cl)NC(=O)CN(C)C)CC1`, on Melanocortin receptor 4 [2], the IC50 was 400 nM. The Ki on Melanocortin receptor 3 came out at 3100 nM; on Melanocortin receptor 4 [3] it was 9.4 nM; at Melanocortin receptor 5, 950 nM. The same compound gave an inhibition in data set [4] of 34%.

Turning to `CC(C)CC(O)c1ccccc1N1CCN(C(=O)[C@@H](Cc2ccc(Cl)cc2Cl)NC(=O)CN(C)C)CC1` (stereo partly drawn), the 50% inhibitory concentration (IC50) on Melanocortin receptor 4 [2] was 250 nM. Moreover, the Ki on Melanocortin receptor 3 came out at 3100 nM; at Melanocortin receptor 4 [3] it was 9.6 nM; on Melanocortin receptor 5, 1300 nM. The compound further yielded an inhibition in data set [4] of 36%.

On to `CC(C)CC(N)c1ccccc1N1CCN(C(=O)[C@@H](Cc2ccc(Cl)cc2Cl)NC(=O)CCN)CC1` (stereo partly drawn), for which the bioavailability in [5] came to 2.1%. In [6], this compound came in with a Vd of 41.5 L/kg. Besides, the half-inhibitory concentration (IC50) at Melanocortin receptor 4 [2] is 250 nM. In [8], this compound gave a half-life of 7.1 h. The values for the Ki on Melanocortin receptor 3, at Melanocortin receptor 4 [3] and at Melanocortin receptor 5 were 870 nM, 3.2 nM and 540 nM, respectively. Besides, the Kp at 1 h in data set [9] was determined as 1.8. For the same compound, the clearance in data set [10] is 68 mL/min/kg. The intrinsic clearance (CLint scaled) in [11] came to 3.6 mL/min/kg. The Drug uptake with Brain is recorded as 245 ng/g. This compound also returned a log distribution coefficient (logD) in data set [12] of 0.15.

In turn, `CC(C)CC(=O)c1ccccc1N1CCN(C(=O)[C@@H](Cc2ccc(Cl)cc2Cl)NC(=O)CN)CC1` gave a Ki on Melanocortin receptor 4 [3] of 33 nM. That is a double-digit nanomolar value.

Turning to `CCC(O)(CC)c1ccccc1N1CCN(C(=O)[C@@H](Cc2ccc(Cl)cc2Cl)NC(=O)[C@H](C)N)CC1`, affinity at Melanocortin receptor 4 [3] was put at a Ki of 18 nM. Compared with the last compound, the Ki is about 1.8-fold lower.

In the case of `CC(C)CC(O)c1ccccc1N1CCN(C(=O)[C@@H](Cc2ccc(Cl)cc2Cl)N(Cc2ccccn2)Cc2ccccn2)CC1` (stereo partly drawn), the Ki on Melanocortin receptor 4 [3] turned out to be 83 nM.

The compound `CNC(C)(C)C(=O)N[C@H](Cc1ccc(Cl)cc1Cl)C(=O)N1CCN(c2ccccc2C(N)CC(C)C)CC1` (stereo partly drawn) showed an inhibitory constant (Ki) at Melanocortin receptor 4 [3] of 4.7 nM.

At Melanocortin receptor 4 [3], `CC(C)C[C@H](O)c1ccccc1N1CCN(C(=O)[C@@H](Cc2ccc(Cl)cc2Cl)NC(=O)CN)CC1` had an inhibition constant Ki of 28 nM. This Ki is about 6-fold higher than that of the compound before.

The compound `CCCCN(CCCC)[C@H](Cc1ccc(Cl)cc1Cl)C(=O)N1CCN(c2ccccc2C(=O)CC(C)C)CC1` gave an inhibitory constant (Ki) at Melanocortin receptor 4 [3] of 1700 nM.

As to `CC(C)CC(=O)c1ccccc1N1CCN(C(=O)[C@@H](Cc2ccc(Cl)cc2Cl)NC(=O)CCN)CC1`, the concentration for half-maximal inhibition (IC50) on Melanocortin receptor 4 [2] amounted to 650 nM. Moreover, the inhibition constant (Ki) was 2300 nM on Melanocortin receptor 3, 24 nM on Melanocortin receptor 4 [3] and 330 nM on Melanocortin receptor 5. The compound also gave an inhibition in data set [4] of 42%. Besides, the intrinsic clearance (CLint scaled) in [11] stood at 18.4 mL/min/kg. In [12], this compound showed a log distribution coefficient (logD) of 2.4.

On Melanocortin receptor 4 [3], `CC(C)CC(O)c1ccccc1N1CCN(C(=O)[C@H](N)Cc2ccc(Cl)cc2Cl)CC1` (stereo partly drawn) showed a Ki of 280 nM. This counts as sub-micromolar.

As for `CCC(O)(CC)c1ccccc1N1CCN(C(=O)[C@@H](Cc2ccc(Cl)cc2Cl)NC(=O)CCN)CC1`, on Melanocortin receptor 4 [3], the Ki worked out at 11 nM.

As for `CNCC(=O)N[C@H](Cc1ccc(Cl)cc1Cl)C(=O)N1CCN(c2ccccc2C(=O)CC(C)C)CC1`, the inhibition constant (Ki) on Melanocortin receptor 4 [1] worked out at 290 nM; on Melanocortin receptor 4 [3], 31 nM. The compound also displayed a fold change (FC) in the data set filed under Homo sapiens of 9.
